Assay: Radiolysis / stability of [18F]DCFPyL over time by HPLC with radiodetection (RCP, free 18F, radioactive impurities)
Format: physicochemical
Conditions: for RT 4.8 radioactive impurity: MPA = 0.25% of main peak; for RCP: T = 10 hour; for 18F-DCFPyL / Free 18F: forced radiolysis in ethanol, 364.5 mCi/mL; for RT 5.0 min / RT 5.9 min / RT 12.0 min / RT 12.2 min: radioactive impurity
Method: Those of ordinary skill in the art will be aware of techniques and systems for determining the radiochemical purity of a composition. In some cases, the radiochemical purity is determined using an HPLC associated with a radio-detector. Generally, the radiochemical purity is determined under ambient conditions (e.g., ambient temperature, ambient humidity, ambient light, etc.), such as in samples stored under such conditions.
Stability was assessed using reverse phase HPLC on a C18 column with a phosphate buffer/acetonitrile gradient mobile phase, and the elution profile was monitored using both UV and radiochemical detectors. Samples were analyzed either by direct injection onto the HPLC, dilution and injection or including the addition of tetraethylammonium fluoride (TEAF) into the sample before injection.
Known amounts of free ^18F either alone or spiked with TEAF were injected onto the analytic column and the eluent from the column collected over the course of a chromatogram and assaying the radioactivity using a Capintec. […] Adding TEAF into the analytic samples was incorporated into subsequent studies examining potential radiolysis of [^18F]DCFPyL to overcome some of the limitations of free ^18F quantification.
Analytical HPLC method was used. The method employs UV detection at 264 nm for chemical impurities, and an Eckert & Ziegler model B-FC-1000 gamma detector for radiochemical assays.

[1] = T = 6 hr, 5 mg/mL ascorbic acid pH 5.8, 20% ethanol, 99.0 mCi/mL at EOS
[2] = T = 6 hr, 50 mg/mL ascorbic acid pH 5.8, 20% ethanol, 139.7 mCi/mL at EOS
[3] = T = 6 hr, 100% ethanol, 325 mCi/mL at EOS
[4] = T = 7 hr, 100% ethanol, 325 mCi/mL at EOS
[5] = T = 8 hr, 100% ethanol, 325 mCi/mL at EOS
[6] = T = 9 hr, 100% ethanol, 325 mCi/mL at EOS
[7] = T = 10 hr, +TEAF added to sample before HPLC, 100% ethanol, 325 mCi/mL at EOS
[8] = T = 10 hr, 1 mg/mL ascorbic acid pH 5.8, 20% ethanol, 107.0 mCi/mL at EOS
[9] = T = 10 hr, 5 mg/mL ascorbic acid pH 5.8, 20% ethanol, 99.0 mCi/mL at EOS
[10] = T = 10 hr, 50 mg/mL ascorbic acid pH 5.8, 20% ethanol, 139.7 mCi/mL at EOS
[11] = T = 10 h, TEAF added (44 mg/mL) to sharpen the 18F peak
[12] = 147 mCi/mL in 0.9% Sodium Chloride, USP, T = 0 h
[13] = 147 mCi/mL in 0.9% Sodium Chloride, USP, T = 0.5 h
[14] = 147 mCi/mL in 0.9% Sodium Chloride, USP, T = 1.0 h
[15] = 147 mCi/mL in 0.9% Sodium Chloride, USP, T = 1.5 h
[16] = 147 mCi/mL in 0.9% Sodium Chloride, USP, T = 2.0 h
[17] = 147 mCi/mL in 0.9% Sodium Chloride, USP, T = 2.5 h
[18] = 147 mCi/mL in 0.9% Sodium Chloride, USP, T = 3.0 h
[19] = 147 mCi/mL in 0.9% Sodium Chloride, USP, T = 3.5 h
[20] = 147 mCi/mL in 0.9% Sodium Chloride, USP, T = 4.0 h
[21] = 256 mCi/mL in ethanol, T = 1.0 h
[22] = 256 mCi/mL in ethanol, T = 1.5 h
[23] = 256 mCi/mL in ethanol, T = 2.0 h
[24] = 256 mCi/mL in ethanol, T = 2.5 h
[25] = 256 mCi/mL in ethanol, T = 3.0 h
[26] = 256 mCi/mL in ethanol, T = 3.5 h
[27] = 256 mCi/mL in ethanol, T = 4.0 h

O=C(O)CC[C@H](NC(=O)N[C@@H](CCCCNC(=O)c1ccc([18F])nc1)C(=O)O)C(=O)O [Lot 18F-DCFPyL, 2-(3-{1-carboxy-5-[(6-[18F]fluoro-pyridine-3-carbonyl)-amino]-pentyl}ureido)-pentanedioic acid]
Free F-18 (T = 6 hr, 1 mg/mL ascorbic acid pH 5.8, 20% ethanol, 107.0 mCi/mL at EOS): 1.57%
Free F-18 (T = 6 hr, 1 mg/mL sodium ascorbate, 20% ethanol, 111.5 mCi/mL at EOS): 2.81%
18F-DCFPyL (% RCP) [1]: 99.09%
Free F-18 [1]: 0.91%
Free F-18 (T = 6 hr, 5 mg/mL sodium ascorbate, 20% ethanol, 114.6 mCi/mL at EOS): 1.45%
18F-DCFPyL (% RCP) [2]: 99.64%
Free F-18 [2]: 0.36%
RT 4.8 radioactive impurity [2]: <MPA
18F-DCFPyL (RCP) [3]: 96.73%
Free F-18 [3]: 4.27%
18F-DCFPyL (RCP) [4]: 96.42%
Free F-18 [4]: 4.58%
18F-DCFPyL (RCP) [5]: 95.76%
Free F-18 [5]: 4.24%
18F-DCFPyL (RCP) [6]: 95.31%
Free F-18 [6]: 4.69%
RCP (120 mCi/mL, ascorbic acid 5.6 mg/mL pH 6.0): 96.9%
RCP (127 mCi/mL, ascorbic acid 2.8 mg/mL pH 6.0): 96.1%
RCP (166 mCi/mL, ascorbic acid 5.6 mg/mL pH 6.0): 95.5%
18F-DCFPyL (RCP) [7]: 92.7%
Free F-18 [7]: 7.35%
Free F-18 (T = 10 hr, +TEAF added to sample before HPLC, 100% ethanol, 325 mCi/mL at EOS, listed as 18F DCFPyL): 7.4%
Free F-18 (T = 10 hr, no TEAF, 100% ethanol, 325 mCi/mL at EOS): 4.55%
Free F-18 (T = 10 hr, no TEAF, 100% ethanol, 325 mCi/mL at EOS, listed as 18F DCFPyL): 4.6%
Free F-18 (T = 10 hr, 0.5 mg/mL ascorbic acid pH 5.8, 20% ethanol, 105.8 mCi/mL at EOS): 1.42%
18F-DCFPyL (% RCP) [8]: 98.36%
Free F-18 [8]: 1.64%
Free F-18 (T = 10 hr, 1 mg/mL sodium ascorbate, 20% ethanol, 111.5 mCi/mL at EOS): 2.74%
18F-DCFPyL (% RCP) [9]: 99.05%
Free F-18 [9]: 0.95%
Free F-18 (T = 10 hr, 5 mg/mL sodium ascorbate, 20% ethanol, 114.6 mCi/mL at EOS): 1.51%
18F-DCFPyL (% RCP) [10]: 99.34%
Free F-18 [10]: 0.30%
RT 4.8 radioactive impurity [10]: 0.36%
18F-DCFPyL (RCP) (T = 10 hr, 100% ethanol, 325 mCi/mL at EOS): 95.45%
18F-DCFPyL (RCP) (T = 10 hr, 100% ethanol, 325 mCi/mL at EOS, listed as 18F DCFPyL): 95.5%
18F-DCFPyL (T = 0 h): 98.37 area %
Free 18F (T = 0 h): 1.63 area %
18F-DCFPyL (T = 1 h): 96.66 area %
Free 18F (T = 1 h): 3.34 area %
18F-DCFPyL (T = 2 h): 96.38 area %
Free 18F (T = 2 h): 3.62 area %
18F-DCFPyL (T = 3 h): 95.71 area %
Free 18F (T = 3 h): 4.29 area %
18F-DCFPyL (T = 4 h): 95.60 area %
Free 18F (T = 4 h): 4.40 area %
18F-DCFPyL (T = 5 h): 95.58 area %
Free 18F (T = 5 h): 4.42 area %
18F-DCFPyL (T = 6 h): 95.73 area %
Free 18F (T = 6 h): 4.27 area %
18F-DCFPyL (T = 7 h): 95.42 area %
Free 18F (T = 7 h): 4.58 area %
18F-DCFPyL (T = 8 h): 95.76 area %
Free 18F (T = 8 h): 4.24 area %
18F-DCFPyL (T = 9 h): 95.31 area %
Free 18F (T = 9 h): 4.69 area %
18F-DCFPyL (T = 10 h): 95.45 area %
Free 18F (T = 10 h): 4.55 area %
18F-DCFPyL [11]: 92.65 area %
Free 18F [11]: 7.35 area %
two impurities eluting before the 18F-DCFPyL peak, upper end of range (<LLQ to ...) (over 4 hours, 110 mCi/mL lot, 50 mg/mL pH 5.8 ascorbic acid, 24% (w/w) ethanol): ≤ 0.37%
impurity eluting before the 18F-DCFPyL peak, upper end of range (<LLQ to ...) (over 4 hours, 256 mCi/mL lot, 100 mg/mL pH 2.0 ascorbic acid in collection vial): ≤ 0.35%
RT 5.0 min (110 mCi/mL in 50 mg/mL pH 5.8 ascorbic acid, T = 0 h): 0.27 area %
RT 5.0 min (110 mCi/mL in 50 mg/mL pH 5.8 ascorbic acid, T = 0.5 h): 0.28 area %
RT 5.0 min (110 mCi/mL in 50 mg/mL pH 5.8 ascorbic acid, T = 1.0 h): 0.26 area %
RT 5.0 min (110 mCi/mL in 50 mg/mL pH 5.8 ascorbic acid, T = 1.5 h): 0.34 area %
RT 5.0 min (110 mCi/mL in 50 mg/mL pH 5.8 ascorbic acid, T = 2.0 h): 0.24 area %
RT 5.0 min (110 mCi/mL in 50 mg/mL pH 5.8 ascorbic acid, T = 2.5 h): 0.34 area %
RT 5.0 min (110 mCi/mL in 50 mg/mL pH 5.8 ascorbic acid, T = 3.0 h): 0.35 area %
RT 5.0 min (110 mCi/mL in 50 mg/mL pH 5.8 ascorbic acid, T = 3.5 h): 0.31 area %
RT 5.0 min (110 mCi/mL in 50 mg/mL pH 5.8 ascorbic acid, T = 4.0 h): 0.31 area %
RT 5.0 min [12]: 0.50 area %
RT 5.9 min [12]: 0.64 area %
RT 5.0 min [13]: 0.65 area %
RT 5.9 min [13]: 0.97 area %
RT 5.0 min [14]: 0.48 area %
RT 5.9 min [14]: 1.11 area %
RT 5.0 min [15]: 0.61 area %
RT 5.9 min [15]: 1.03 area %
RT 5.0 min [16]: 0.77 area %
RT 5.9 min [16]: 1.05 area %
RT 5.0 min [17]: 0.62 area %
RT 5.9 min [17]: 0.93 area %
RT 5.0 min [18]: 0.70 area %
RT 5.9 min [18]: 0.87 area %
RT 5.0 min [19]: 0.59 area %
RT 5.9 min [19]: 0.95 area %
RT 5.0 min [20]: 0.71 area %
RT 5.9 min [20]: 0.96 area %
RT 5.0 min [21]: 0.35 area %
RT 12.0 min [21]: 0.35 area %
RT 12.2 min [21]: 0.31 area %
RT 5.0 min [22]: 0.28 area %
RT 12.0 min [22]: 0.46 area %
RT 12.2 min [22]: 0.37 area %
RT 5.0 min [23]: 0.50 area %
RT 12.0 min [23]: 0.52 area %
RT 12.2 min [23]: 0.47 area %
RT 12.0 min [24]: 0.52 area %
RT 12.2 min [24]: 0.46 area %
RT 12.0 min [25]: 0.69 area %
RT 12.2 min [25]: 0.57 area %
RT 12.0 min [26]: 0.87 area %
RT 12.2 min [26]: 0.75 area %
RT 12.0 min [27]: 0.96 area %
RT 12.2 min [27]: 0.69 area %
